Data reported in patent US20260232767A1, “INTERLEUKIN-23 RECEPTOR ANTAGONIST PEPTIDES FOR USE IN THE TREATMENT OF PSORIASIS” (Janssen Pharmaceutica NV, priority 2023, published 2026).

System: subjects with moderate-to-severe plaque psoriasis
Assay: Hematology and chemistry laboratory values by CTCAE grade
Type: in vivo, human
Settings: through Week 56
Excerpt: The proportion of participants who discontinued study intervention due to one or more AEs was low (n=4). All events were singular in nature with no apparent dose-dependent increase (Table 48 and Table 52). The number of participants with abnormal hematology and chemistry laboratory values with CTCAE toxicity grade≥3 were low through the end of the study (Table 43 through Table 46). There was no apparent dose-dependent increase in laboratory abnormality occurrences.

CC(=O)NCCCC[C@@H]1NC(=O)[C@H](Cc2c[nH]c3c(C)cccc23)NC(=O)[C@H]([C@@H](C)O)NC(=O)[C@H](CC(N)=O)NC(=O)[C@@H](NC(C)=O)C(C)(C)SSC(C)(C)[C@@H](C(=O)N[C@@H](Cc2ccc(OCCN)cc2)C(=O)N[C@@H](Cc2ccc3ccccc3c2)C(=O)NC2(C(=O)N[C@@H](CCC(=O)O)C(=O)N[C@@H](CC(N)=O)C(=O)N[C@@H](Cc3cccnc3)C(=O)N(C)CC(N)=O)CCOCC2)NC1=O [IL-23 receptor antagonist peptide, Ac-[Pen]*-N-T-[W(7-Me)]-[Lys(Ac)]-[Pen]*-Phe[4-(2-aminoethoxy)]-[2-Nal]-[THP]-E-N-[3-Pal]-Sarc-NH2 (*[Pen]-[Pen]* formdisulfidebond)]
7: Potassium (increased): Subjects with postbaseline maximum toxicity grade >0 (25 mg QD) | Aspartate Aminotransferase (increased): Subjects with Grade 1 (100 mg BID)
10: Alanine Aminotransferase (increased): Subjects with Grade 1 (100 mg BID)
5: Platelets (×10^9/L) (decreased): subjects with Grade 1 (25 mg QD) | Platelets (×10^9/L) (decreased): subjects with postbaseline maximum toxicity grade >0 (25 mg QD) | Hemoglobin (g/L) (decreased): subjects with postbaseline maximum toxicity grade >0 (50 mg QD) | Total Bilirubin (increased): Subjects with postbaseline maximum toxicity grade >0 (50 mg QD)
9: Aspartate Aminotransferase (increased): Subjects with postbaseline maximum toxicity grade >0 (100 mg BID)
0: Platelets (×10^9/L) (decreased): subjects with Grade 2 (25 mg QD) | Platelets (×10^9/L) (decreased): subjects with Grade 3 (25 mg QD) | Platelets (×10^9/L) (decreased): subjects with Grade 4 (25 mg QD) | Potassium (decreased): Subjects with Grade 1 (25 mg QD) | Potassium (decreased): Subjects with Grade 2 (25 mg QD) | Potassium (decreased): Subjects with Grade 3 (25 mg QD) | Potassium (decreased): Subjects with Grade 4 (25 mg QD) | Potassium (decreased): Subjects with postbaseline maximum toxicity grade >0 (25 mg QD) | Potassium (increased): Subjects with Grade 3 (25 mg QD) | Potassium (increased): Subjects with Grade 4 (25 mg QD) | Sodium (decreased): Subjects with Grade 2 (25 mg QD) | Sodium (decreased): Subjects with Grade 3 (25 mg QD) | Sodium (decreased): Subjects with Grade 4 (25 mg QD) | Sodium (increased): Subjects with Grade 2 (25 mg QD) | Sodium (increased): Subjects with Grade 3 (25 mg QD) | Sodium (increased): Subjects with Grade 4 (25 mg QD) | Total Bilirubin (increased): Subjects with Grade 2 (25 mg QD) | Total Bilirubin (increased): Subjects with Grade 3 (25 mg QD) | Total Bilirubin (increased): Subjects with Grade 4 (25 mg QD) | Triglycerides (increased): Subjects with Grade 4 (25 mg QD) | WBC (×10^9/L) (decreased): subjects with Grade 2 (25 mg QD) | WBC (×10^9/L) (decreased): subjects with Grade 3 (25 mg QD) | WBC (×10^9/L) (decreased): subjects with Grade 4 (25 mg QD) | WBC (×10^9/L) (increased): subjects with Grade 1 (25 mg QD) | WBC (×10^9/L) (increased): subjects with Grade 2 (25 mg QD) | WBC (×10^9/L) (increased): subjects with Grade 3 (25 mg QD) | WBC (×10^9/L) (increased): subjects with Grade 4 (25 mg QD) | WBC (×10^9/L) (increased): subjects with postbaseline maximum toxicity grade >0 (25 mg QD) | Alanine Aminotransferase (increased): Subjects with Grade 2 (50 mg QD) | Alanine Aminotransferase (increased): Subjects with Grade 3 (50 mg QD) | Alanine Aminotransferase (increased): Subjects with Grade 4 (50 mg QD) | Albumin (decreased): Subjects with Grade 1 (50 mg QD) | Albumin (decreased): Subjects with Grade 2 (50 mg QD) | Albumin (decreased): Subjects with Grade 3 (50 mg QD) | Albumin (decreased): Subjects with Grade 4 (50 mg QD) | Albumin (decreased): Subjects with postbaseline maximum toxicity grade >0 (50 mg QD) | Alkaline Phosphatase (increased): Subjects with Grade 2 (50 mg QD) | Alkaline Phosphatase (increased): Subjects with Grade 3 (50 mg QD) | Alkaline Phosphatase (increased): Subjects with Grade 4 (50 mg QD) | Aspartate Aminotransferase (increased): Subjects with Grade 2 (50 mg QD) | Aspartate Aminotransferase (increased): Subjects with Grade 3 (50 mg QD) | Aspartate Aminotransferase (increased): Subjects with Grade 4 (50 mg QD) | Calcium corrected (decreased): Subjects with Grade 2 (50 mg QD) | Calcium corrected (decreased): Subjects with Grade 3 (50 mg QD) | Calcium corrected (decreased): Subjects with Grade 4 (50 mg QD) | Calcium corrected (increased): Subjects with Grade 1 (50 mg QD) | Calcium corrected (increased): Subjects with Grade 2 (50 mg QD) | Calcium corrected (increased): Subjects with Grade 3 (50 mg QD) | Calcium corrected (increased): Subjects with Grade 4 (50 mg QD) | Calcium corrected (increased): Subjects with postbaseline maximum toxicity grade >0 (50 mg QD) | Cholesterol (increased): Subjects with Grade 2 (50 mg QD) | Cholesterol (increased): Subjects with Grade 3 (50 mg QD) | Cholesterol (increased): Subjects with Grade 4 (50 mg QD) | Creatine Kinase (increased): Subjects with Grade 3 (50 mg QD) | Creatinine (increased): Subjects with Grade 2 (50 mg QD) | Creatinine (increased): Subjects with Grade 3 (50 mg QD) | Creatinine (increased): Subjects with Grade 4 (50 mg QD) | Gamma Glutamyl Transferase (increased): Subjects with Grade 2 (50 mg QD) | Gamma Glutamyl Transferase (increased): Subjects with Grade 3 (50 mg QD) | Gamma Glutamyl Transferase (increased): Subjects with Grade 4 (50 mg QD) | Glucose (decreased): Subjects with Grade 2 (50 mg QD) | Glucose (decreased): Subjects with Grade 3 (50 mg QD) | Glucose (decreased): Subjects with Grade 4 (50 mg QD) | Hemoglobin (g/L) (decreased): subjects with Grade 3 (50 mg QD) | Hemoglobin (g/L) (decreased): subjects with Grade 4 (50 mg QD) | Hemoglobin (g/L) (increased): subjects with Grade 1 (50 mg QD) | Hemoglobin (g/L) (increased): subjects with Grade 2 (50 mg QD) | Hemoglobin (g/L) (increased): subjects with Grade 3 (50 mg QD) | Hemoglobin (g/L) (increased): subjects with Grade 4 (50 mg QD) | Hemoglobin (g/L) (increased): subjects with postbaseline maximum toxicity grade >0 (50 mg QD) | Lymphocytes (×10^9/L) (decreased): subjects with Grade 3 (50 mg QD) | Lymphocytes (×10^9/L) (decreased): subjects with Grade 4 (50 mg QD) | Lymphocytes (×10^9/L) (increased): subjects with Grade 1 (50 mg QD) | Lymphocytes (×10^9/L) (increased): subjects with Grade 2 (50 mg QD) | Lymphocytes (×10^9/L) (increased): subjects with Grade 3 (50 mg QD) | Lymphocytes (×10^9/L) (increased): subjects with Grade 4 (50 mg QD) | Lymphocytes (×10^9/L) (increased): subjects with postbaseline maximum toxicity grade >0 (50 mg QD) | Magnesium (decreased): Subjects with Grade 1 (50 mg QD) | Magnesium (decreased): Subjects with Grade 2 (50 mg QD) | Magnesium (decreased): Subjects with Grade 3 (50 mg QD) | Magnesium (decreased): Subjects with Grade 4 (50 mg QD) | Magnesium (decreased): Subjects with postbaseline maximum toxicity grade >0 (50 mg QD) | Magnesium (increased): Subjects with Grade 2 (50 mg QD) | Magnesium (increased): Subjects with Grade 3 (50 mg QD) | Magnesium (increased): Subjects with Grade 4 (50 mg QD) | Neutrophils (×10^9/L) (decreased): subjects with Grade 3 (50 mg QD) | Neutrophils (×10^9/L) (decreased): subjects with Grade 4 (50 mg QD) | Platelets (×10^9/L) (decreased): subjects with Grade 1 (50 mg QD) | Platelets (×10^9/L) (decreased): subjects with Grade 2 (50 mg QD) | Platelets (×10^9/L) (decreased): subjects with Grade 3 (50 mg QD) | Platelets (×10^9/L) (decreased): subjects with Grade 4 (50 mg QD) | Platelets (×10^9/L) (decreased): subjects with postbaseline maximum toxicity grade >0 (50 mg QD) | Potassium (decreased): Subjects with Grade 1 (50 mg QD) | Potassium (decreased): Subjects with Grade 2 (50 mg QD) | Potassium (decreased): Subjects with Grade 3 (50 mg QD) | Potassium (decreased): Subjects with Grade 4 (50 mg QD) | Potassium (decreased): Subjects with postbaseline maximum toxicity grade >0 (50 mg QD) | Potassium (increased): Subjects with Grade 2 (50 mg QD) | Potassium (increased): Subjects with Grade 4 (50 mg QD) | Sodium (decreased): Subjects with Grade 1 (50 mg QD) | Sodium (decreased): Subjects with Grade 2 (50 mg QD) | Sodium (decreased): Subjects with Grade 3 (50 mg QD) | Sodium (decreased): Subjects with Grade 4 (50 mg QD) | Sodium (decreased): Subjects with postbaseline maximum toxicity grade >0 (50 mg QD) | Sodium (increased): Subjects with Grade 1 (50 mg QD) | Sodium (increased): Subjects with Grade 2 (50 mg QD) | Sodium (increased): Subjects with Grade 3 (50 mg QD) | Sodium (increased): Subjects with Grade 4 (50 mg QD) | Sodium (increased): Subjects with postbaseline maximum toxicity grade >0 (50 mg QD) | Total Bilirubin (increased): Subjects with Grade 3 (50 mg QD) | Total Bilirubin (increased): Subjects with Grade 4 (50 mg QD) | Triglycerides (increased): Subjects with Grade 1 (50 mg QD) | Triglycerides (increased): Subjects with Grade 4 (50 mg QD) | WBC (×10^9/L) (decreased): subjects with Grade 3 (50 mg QD) | WBC (×10^9/L) (decreased): subjects with Grade 4 (50 mg QD) | WBC (×10^9/L) (increased): subjects with Grade 1 (50 mg QD) | WBC (×10^9/L) (increased): subjects with Grade 2 (50 mg QD) | WBC (×10^9/L) (increased): subjects with Grade 3 (50 mg QD) | WBC (×10^9/L) (increased): subjects with Grade 4 (50 mg QD) | WBC (×10^9/L) (increased): subjects with postbaseline maximum toxicity grade >0 (50 mg QD) | Alanine Aminotransferase (increased): Subjects with Grade 3 (100 mg BID) | Alanine Aminotransferase (increased): Subjects with Grade 4 (100 mg BID) | Albumin (decreased): Subjects with Grade 1 (100 mg BID) | Albumin (decreased): Subjects with Grade 2 (100 mg BID) | Albumin (decreased): Subjects with Grade 3 (100 mg BID) | Albumin (decreased): Subjects with Grade 4 (100 mg BID) | Albumin (decreased): Subjects with postbaseline maximum toxicity grade >0 (100 mg BID) | Alkaline Phosphatase (increased): Subjects with Grade 1 (100 mg BID) | Alkaline Phosphatase (increased): Subjects with Grade 2 (100 mg BID) | Alkaline Phosphatase (increased): Subjects with Grade 3 (100 mg BID) | Alkaline Phosphatase (increased): Subjects with Grade 4 (100 mg BID) | Alkaline Phosphatase (increased): Subjects with postbaseline maximum toxicity grade >0 (100 mg BID) | Aspartate Aminotransferase (increased): Subjects with Grade 4 (100 mg BID) | Calcium corrected (decreased): Subjects with Grade 3 (100 mg BID) | Calcium corrected (decreased): Subjects with Grade 4 (100 mg BID) | Calcium corrected (increased): Subjects with Grade 1 (100 mg BID) | Calcium corrected (increased): Subjects with Grade 2 (100 mg BID) | Calcium corrected (increased): Subjects with Grade 3 (100 mg BID) | Calcium corrected (increased): Subjects with Grade 4 (100 mg BID) | Calcium corrected (increased): Subjects with postbaseline maximum toxicity grade >0 (100 mg BID) | Cholesterol (increased): Subjects with Grade 2 (100 mg BID) | Cholesterol (increased): Subjects with Grade 3 (100 mg BID) | Cholesterol (increased): Subjects with Grade 4 (100 mg BID)
